Data set [1] concerns HT-29. The experiment in a line: Antiproliferative activity against human HT-29 cells assessed as cell growth inhibition. Format: functional, cell-based.
Data set [2] deals with DLD-1. The experiment in a line: Antiproliferative activity against human DLD-1 cells assessed as cell growth inhibition. Format: functional, cell-based.
Data set [3] has as its system COLO-320-HSR. In words: Antiproliferative activity against human COLO 320HSR cells assessed as cell growth inhibition. Format: functional, cell-based.
Data set [4] can be described thus: Bioavailability in human. Format: ADME, organism-based. Particulars: in vivo.
Data set [5] is described as follows: in vivo. Particulars: mouse.
Data set [6] concerns Human alphaherpesvirus 3. In words: Antiviral activity against clinical isolate VZV. Format: functional, organism-based.

Drawing on ChEMBL document CHEMBL5230118, “Therapeutic potential of uracil and its derivatives in countering pathogenic and physiological disorders” (Eur J Med Chem, 2020), this text covers IC50, bioavailability and half-life for four compounds.

Structures are written as SMILES. pIC50: −log10 of the molar value.

On to `O=c1[nH]c(=O)n([C@@H]2O[C@H](CO)[C@@H](O)[C@@H]2O)cc1F`, for which the pIC50 – broadly, the negative decadic logarithm of the IC50, by convention in mol/L – in data set [1] is 7.39; in data set [2], 7.28; in data set [3] it was 7.64.
In the case of `Cn1c(=O)cc(N2CCC[C@@H](N)C2)n(Cc2ccccc2C#N)c1=O` [ALOGLIPTIN], the bioavailability (as a rule, dose-corrected exposure relative to a reference, in per cent) in data set [4] came to 75%.
Turning to `O=c1[nH]cc(F)c(=O)[nH]1` [FLUOROURACIL], in data set [5], the half-life (commonly the time in which the quantity being followed falls by half) was 16 min.
The compound `CC#Cc1cn([C@@H]2O[C@H](CO)[C@@H](O)[C@@H]2O)c(=O)[nH]c1=O` [NETIVUDINE] had a pIC50 in data set [6] of 6.00. The same compound gave a bioavailability in data set [4] of 25%.
